According to patent publication US20260115202A1, “TOPICAL COMPOSITIONS COMPRISING AN ESTETROL COMPONENT AND USE OF SAID COMPOSITIONS FOR WOUND HEALING” (NEURALIS SA, priority 2022, published 2026):

What was measured:
THP1 cells = assay: THP1 macrophage polarisation, qPCR of M1/M2 markers; type: cell-based, human; conditions: range of concentrations; for expression of Tnf-α (M1 marker): M1 polarised THP1 cells; for expression of CCL17 (M2 marker): M2 polarised THP1 cells
Procedure: THP1 cells were maintained in RPM1 growth medium supplemented with 10% heat-inactivated FBS and 1% penicillin/streptomycin. Cells were seeded into 12- or 6-well plates at 2×10^5 cells/ml and treated with phorbol 12-myristate 13-acetate (PMA) to induce differentiation to macrophages. Cells were cultured for 24 hours in complete growth medium without PMA, followed by a 6 hour serum starve prior to polarisation. Cells were polarised to M1 macrophages using 20 ng/ml IFN-γ and 10 pg/ml LPS (from E, coli) for 6 or 24 hours and collected for RNA isolation or flow cytometry. Following treatments, human and murine macrophages were collected in Trizol and RNA isolated using the Trizol plus RNA isolation kit (Invitrogen. Thermo Fisher) according to the manufacturer's instructions. RNA was reverse transcribed to cDNA using GoScript reverse transcriptase (Promega). Quantitative real-time PCR was carried out using 2×Takyon SYBR Green mastermix and a CFX Connect thermocycler. Primers for ERα and ERβ were used to explore changes in ER expression after treatment of MEK and MDF with E2 and E4. To investigate the effect of E2 and E4 on MEK differentiation and the expression of ECM proteins by MDF, primers for. Snail, keratin-1 and fibronectin, collagen I. MMP-2 and MMP-9 were used. Primers for INOS. IL-1B and Tnf-α or Ccl17 were used to assess M1/M2 polarisation status. Primers for GAPDH were used to normalise data. Relative gene expression was set to vehicle controls or M0 expression unless otherwise stated. The relative anti-inflammatory effects of both E2 and E4 were evaluated in vitro. First, the human monocyte THP1 cell line was used to screen several concentrations of E2 and E4. THP1 cells were differentiated to a macrophage phenotype by treatment with PMA, followed by polarisation to an M1 or M2 phenotype (FIG. 23). Successful polarisation was confirmed by profiling the expression of the M1 marker (TNF-α) and the M2 marker (CCL17). The effects of co-treatment with a range of E2 or E4 concentrations were evaluated.

[1] = test system: LPS-induced delayed wound healing mice model; assay: In vivo LPS model, single or repeated administration: wound histology at day 3; conditions: single administration
Text: The in vivo LPS treatment protocol (delayed wound healing model) as presented in example 4 has been repeated with the following groups of animals: • Double placebo group (untreated control). • LPS control (LPS, placebo treatment). • LPS with topical EstroGel (estradiol gel, contains 0.06% 17β-estradiol as hemihydrate in a hydro-alcoholic gel), repeated administration for 4 days. • LPS with topical AG26 (E4 at 0.06%), single administration. • LPS with topical AG26 (E4 at 0.06%), repeated administration for 4 days. • LPS with topical AG28 (E4 at 0.06%), single administration. • LPS with topical AG28 (E4 at 0.06%), repeated administration for 4 days. On day 0 only (single administration), or on days −1, 0, 1 and 2 (repeated administration), topical EstroGel. AG26. AG28 or corresponding placebo was applied in a thin layer over the top of the wounds (60 μl total: 30 μl/wound) during observations. On day 3, mice were humanely culled via rising concentration of CO2 and cervical dislocation. Uteri as well as non-wounded and wound tissue samples were processed as described under example 4. […] Next, we evaluated wound closure from histological samples (FIG. 13). Histological sections were subjected to K14 immunohistochemistry to visualise the newly forming epidermis.

[2] = test system: Female wild-type (C57BL/6J) 8 weeks old mice; assay: In vivo LPS-induced delayed wound healing model: uterine weight and morphology; conditions: topical, 60 μl on days -1 to 4, LPS mice, assessed at day 5
Text: The in vivo LPS-induced delayed wound healing model was reproduced as previously described (Crompton R, Williams H, Ansell D, Campbell L, Holden K, Cruickshank S, Hardman M J. Oestrogen promotes healing in a bacterial LPS model of delayed cutaneous wound repair. Lab Invest. 2016 April, 96 (4): 439-49).
Female wild-type (C57BL/6J) 8 weeks old mice were split into six groups (6 animals per experimental group): • Double placebo control (no LPS, placebo treatment), • LPS control (LPS, placebo treatment), • LPS with topical EstroGel (estradiol gel, contains 0.06% 17β-estradiol as hemihydrate in a hydro-alcoholic gel), • LPS with topical AG24 (E4 at 0.5%), • LPS with topical AG25 (E4 at 0.22%), • LPS with topical AG26 (E4 at 0.06%).
The day prior to wounding (day −1), all the animals were weighed and anaesthetised using oxygen and isoflurane (flow rate 1.25-2 L with 2-2.5% isoflurane depending on clinical signs). Animals were shaved and dorsal areas prepped. Wound positions (2 wounds) were marked on the dorsum of each animal. Animals received a first subcutaneous injection of 2 μg K. pneumoniae-derived LPS diluted in DPBS (1 μg per wound: Sigma Aldrich, UK: L4268) at the wound site, except the double placebo group that received DPBS only. A thin layer of EstroGel, AG24, AG25, AG26 or placebo were then applied to the dorsum of each animal, measured as 60 μl total (30 μl/wound). […]

[3] = test system: wound expression of M1 (TNF-α and IL1-β) and M2 (Fizz1 and Ym1) markers; assay: In vivo LPS model: qPCR of M1 and M2 markers in wound tissue RNA; parameters: species or system mice; conditions: versus LPS/PBO control
Text: Female wild-type (C57BL/6J) 8 weeks old mice were split into six groups (6 animals per experimental group): • Double placebo control (no LPS, placebo treatment), • LPS control (LPS, placebo treatment), • LPS with topical EstroGel (estradiol gel, contains 0.06% 17β-estradiol as hemihydrate in a hydro-alcoholic gel), • LPS with topical AG24 (E4 at 0.5%), • LPS with topical AG25 (E4 at 0.22%), • LPS with topical AG26 (E4 at 0.06%). The day prior to wounding (day -1), all the animals were weighed and anaesthetised using oxygen and isoflurane (flow rate 1.25-2 L with 2-2.5% isoflurane depending on clinical signs). Animals were shaved and dorsal areas prepped. Wound positions (2 wounds) were marked on the dorsum of each animal. […] A thin layer of EstroGel, AG24, AG25, AG26 or placebo were then applied to the dorsum of each animal, measured as 60 μl total (30 μl/wound). […] For isolation of RNA and quantitative real time PCR murine macrophages were collected in Trizol and RNA was isolated using a Trizol plus RNA isolation kit (Invitrogen. Thermo Fisher) according to the manufacturer's instructions. […] Quantitative real-time PCR was carried out using 2×Takyon SYBR Green mastermix and a CFX Connect thermocycler. […]

SMILES	expression of Tnf-α (M1 marker) (THP1 cells)	expression of CCL17 (M2 marker) (THP1 cells)	numbers of wound neutrophils [1]	uterine weight and morphology [2]	wound M1 marker expression (TNF-α, IL1-β) [3]	wound M2 marker expression (Fizz1, Ym1) [3]
C[C@]12CC[C@@H]3c4ccc(O)cc4CC[C@H]3[C@@H]1CC[C@@H]2O [Formulation E2, 17β-estradiol, reference compound]	strong trend towards reduced expression of Tnf-α in M1 polarised cells	increased expression of CCL 17 in M2 polarised cells				
C[C@]12CC[C@@H]3c4ccc(O)cc4CC[C@H]3[C@@H]1[C@@H](O)[C@@H](O)[C@@H]2O [Formulation E4, 1,3,5 (10)-estratrien-3,15alpha, 16alpha, 17beta-tetrol]	strong trend towards reduced expression of Tnf-α in M1 polarised cells	increased expression of CCL 17 in M2 polarised cells	reduced numbers of wound neutrophils	affects uterine weight in a dose-dependent manner	reduced M1 marker expression	increased M2 marker expression
